Here are results for nine compounds from ChEMBL document CHEMBL1201862, “PubChem BioAssay data set” (2004).

Some test systems named below: PC-3; UACC-62; EKVX; U-251; RXF 393; SW-620; DU-145; SK-MEL-2; SF-268; MDA-MB-231; A498; SK-MEL-28; UACC-257; OVCAR-3; IGROV-1; HCT-15; COLO 205; SNB-19; Hs-578T.
Assay in all cases: NCI anticancer screen, dose series, 48 h

Molecules are shown by their SMILES.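 Where inhibition never reached the appropriate level, the endpoint shown equals the highest concentration tested. Otherwise, values were interpolated linearly from a five-concentration, 48-hour dose response in 96-well plates. GI50 is the concentration that inhibits growth by half.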 Activity calls are given as the source filed them. Rule as the data show it: active = GI50 up to about 1.1 µM and inactive = higher.

Take `CN(C)C(=O)Oc1ccc(-c2cn3cc(NC(=O)c4ccccc4)ccc3n2)cc1`: the GI50 in the experiment on PC-3 is > 100 µM (inactive); in the experiment on UACC-62 it was > 100 µM (inactive); in the experiment on EKVX, > 100 µM (inactive); with U-251, 45.3 µM (inactive); in the experiment with RXF 393 it was > 100 µM (inactive); in the experiment on SW-620, 48.5 µM (inactive). Further, the GI50 was > 100 µM (inactive) in the experiment with DU-145; > 100 µM (inactive) in the experiment on SK-MEL-2; 80.4 µM (inactive) with SF-268; > 100 µM (inactive) with MDA-MB-231; > 100 µM (inactive) in the experiment with A498; > 100 µM (inactive) in the experiment with SK-MEL-28. The GI50 in the experiment on UACC-257 was 53.8 µM (inactive); in the experiment on OVCAR-3, 53.7 µM (inactive); in the experiment with IGROV-1 it was 70.8 µM (inactive); in the experiment on HCT-15, above 100 µM; in the experiment on COLO 205 it was 14.3 µM (inactive); with SNB-19, 50.8 µM (inactive).
For `O/N=C\c1c(O)ccc2ccccc12`, the GI50 in the experiment on PC-3 was 88.3 µM (inactive); in the experiment on UACC-62, 41 µM (inactive); in the experiment with EKVX, 33 µM (inactive); with U-251, 51.8 µM (inactive); in the experiment with RXF 393, 35.2 µM (inactive); with SW-620, 73.6 µM (inactive). For the same compound, the GI50 in the experiment with SF-268 is 31.6 µM (inactive); in the experiment with MDA-MB-231 it was 46.3 µM (inactive); in the experiment on A498 it was 56.2 µM (inactive); in the experiment with SK-MEL-28 it was 47.2 µM (inactive); in the experiment with UACC-257, 71.9 µM (inactive); in the experiment on OVCAR-3, 20.2 µM (inactive). Moreover, the GI50 with Hs-578T is > 100 µM (inactive); in the experiment with HCT-15 it was 32.2 µM; in the experiment with COLO 205, 55.3 µM (inactive); in the experiment with SNB-19 it was > 100 µM (inactive).
With `Cn1nc2ccc([N+](=O)[O-])c(Cn3nnc4ccccc43)c2n1`, the GI50 was > 100 µM (inactive) in the experiment on UACC-62; 87.9 µM (inactive) with EKVX; > 100 µM (inactive) in the experiment on U-251; > 100 µM (inactive) in the experiment with RXF 393; > 100 µM (inactive) in the experiment on SW-620; > 100 µM (inactive) in the experiment on DU-145. Moreover, the GI50 in the experiment on SK-MEL-2, in the experiment on SF-268, with MDA-MB-231, with A498, with SK-MEL-28 and in the experiment with UACC-257 was > 100 µM (inactive) each time. The GI50 in the experiment on OVCAR-3 was > 100 µM (inactive); in the experiment on IGROV-1 it was > 100 µM (inactive); with Hs-578T, 93.1 µM (inactive); in the experiment on HCT-15, above 100 µM; with COLO 205, > 100 µM (inactive); in the experiment on SNB-19, > 100 µM (inactive).
Take `CCSCCCN(CCCSCC)CCCSCC`: the GI50 in the experiment with PC-3, in the experiment on UACC-62, with U-251, in the experiment on SW-620, in the experiment on DU-145 and in the experiment on SF-268 was > 100 µM (inactive) each time. Further, the GI50 was > 100 µM (inactive) in the experiment with MDA-MB-231; > 100 µM (inactive) in the experiment on SK-MEL-28; > 100 µM (inactive) with UACC-257; > 100 µM (inactive) in the experiment with OVCAR-3; 88.3 µM (inactive) in the experiment with IGROV-1; above 100 µM in the experiment with HCT-15. Moreover, the GI50 with COLO 205 and in the experiment with SNB-19 was > 100 µM (inactive) throughout.
Regarding `CCOC(=O)C12CCC(=O)N1N(C)c1ncccc1N2` (configuration not stated), the GI50 in the experiment on UACC-62, in the experiment on EKVX, in the experiment with U-251, in the experiment on RXF 393, in the experiment on SW-620 and with DU-145 was > 100 µM (inactive) in each case. Also, the GI50 in the experiment on SK-MEL-2 is < 0.01 µM (active); in the experiment on SF-268, > 100 µM (inactive); in the experiment with MDA-MB-231, > 100 µM (inactive); with A498, > 100 µM (inactive); in the experiment with SK-MEL-28 it was > 100 µM (inactive); with UACC-257 it was > 100 µM (inactive). The GI50 is > 100 µM (inactive) with OVCAR-3; > 100 µM (inactive) in the experiment on IGROV-1; above 100 µM with HCT-15; > 100 µM (inactive) in the experiment on COLO 205; > 100 µM (inactive) in the experiment on SNB-19.
Take `COC(=N)CCCl`: the GI50 with PC-3, with UACC-62, in the experiment on EKVX, with U-251, in the experiment with RXF 393 and in the experiment on SW-620 was > 100 µM (inactive) in each case. Besides, the GI50 with DU-145, with SF-268, with SK-MEL-28, in the experiment with UACC-257, with OVCAR-3 and in the experiment on IGROV-1 was > 100 µM (inactive) each time. The GI50 in the experiment with HCT-15 is above 100 µM; in the experiment with COLO 205, > 100 µM (inactive); in the experiment on SNB-19 it was > 100 µM (inactive).
As to `CCOC(=O)C(NC(=O)NC(C(=O)OCC)C(=O)OCC)C(=O)OCC`, the GI50 in the experiment with PC-3, in the experiment with UACC-62, in the experiment with EKVX, with U-251, in the experiment with RXF 393 and in the experiment on SW-620 was > 100 µM (inactive) in each case. In addition, the GI50 was > 100 µM (inactive) with DU-145; > 100 µM (inactive) with SK-MEL-2; > 100 µM (inactive) in the experiment with SF-268; > 100 µM (inactive) with SK-MEL-28; > 10 µM (inactive) in the experiment with UACC-257; > 100 µM (inactive) in the experiment with OVCAR-3. For the same compound, the GI50 in the experiment on IGROV-1 was > 100 µM (inactive); in the experiment on Hs-578T it was > 100 µM (inactive); in the experiment on HCT-15, above 100 µM; in the experiment with SNB-19, > 100 µM (inactive).
Turning to `CN(C)/C=N/[C@@H](C(=O)O)c1ccccc1`, the GI50 in the experiment with PC-3, with UACC-62, in the experiment on EKVX, in the experiment with U-251, in the experiment on SW-620 and with DU-145 was > 100 µM (inactive) throughout. The GI50 with SF-268, in the experiment on MDA-MB-231, with A498, in the experiment with SK-MEL-28, with UACC-257 and in the experiment with OVCAR-3 was > 100 µM (inactive) each time. In addition, the GI50 was > 100 µM (inactive) in the experiment with IGROV-1, above 100 µM in the experiment with HCT-15, > 100 µM (inactive) with COLO 205 and > 100 µM (inactive) in the experiment on SNB-19.
As to `Clc1nss/c1=N/c1nonc1-c1ccccc1`, the GI50 was 38.3 µM (inactive) with PC-3; 33.3 µM (inactive) in the experiment with UACC-62; 37.4 µM (inactive) in the experiment on EKVX; 41.1 µM (inactive) with U-251; 29.2 µM (inactive) in the experiment on RXF 393; 41.6 µM (inactive) in the experiment with SW-620. Further, the GI50 was 22.7 µM (inactive) in the experiment on DU-145; 34.9 µM (inactive) with SK-MEL-2; 14 µM (inactive) in the experiment with MDA-MB-231; 71.6 µM (inactive) with A498; 48.1 µM (inactive) in the experiment on SK-MEL-28; 33 µM (inactive) in the experiment with UACC-257. Further, the GI50 is 39 µM (inactive) in the experiment with OVCAR-3; 26.4 µM (inactive) in the experiment with IGROV-1; above 100 µM in the experiment on HCT-15; 20.4 µM (inactive) with COLO 205; 55.6 µM (inactive) in the experiment with SNB-19.
